Columns and labels:
cells = assay: Toxicity of DMSO to cells; type: cell-based
Experimental: (§1) The CP and CP-A peptides were noted to be hydrophobic and insoluble in aqueous solutions. A variety of solvents and carriers were tested to improve their solubility. Solvents and/or carriers that improve solubility of CP and CP-A included, but were not limited to, ethanol, dimethylsulphoxide (DMSO), dimethyl formamide (DMF), and trifluoracetic acid (TFA). When using DMSO as a solvent, the final concentration used in the platelet function experiments ranged from 0.063%-0.250%. DMSO concentrations greater than 1% were observed toxic to cells. Stock solutions of CP and CP-A were prepared in DMSO and used at a […] dilution.

platelets = assay: Collagen-induced platelet activation, whole blood flow cytometry (P-Selectin, PAC-1); type: cell-based, human; conditions: for concentration-dependent effect on collagen-induced platelet activation: 50, 100 or 200 μM
Experimental: Peripheral blood was drawn from healthy, nonsmoking adult volunteers (IRB-approved written informed consent) who had not received any platelet inhibitory drugs in the preceding 2 weeks. After discarding the first 2 mL, blood was drawn into a 3.2% sodium citrate Vacutainer® (Becton Dickinson, Franklin Lakes. N.J., USA).
Flow cytometric analysis may be used to evaluate platelet function, and/or the assessment of platelet activation. Michelson, A. D., “Evaluation of platelet function by flow cytometry” Pathophysiol. Haemost. Thromb. 35:67-82 (2006). In the absence of an added exogenous platelet agonist, whole blood flow cytometry can determine the activation state of circulating platelets, as judged by the binding of an activation-dependent monoclonal antibody. In addition to this assessment of platelet function in vivo, inclusion of an exogenous agonist in the assay enables analysis of the reactivity of circulating platelets in vitro. In the latter application, whole blood flow cytometry is a physiological assay of platelet function in that an agonist results in a specific functional response by the platelets: a change in the surface expression of a physiological receptor (or other antigen or bound ligand), as determined by a change in the binding of a monoclonal antibody.
Markers of platelet activation include activation-dependent changes in the glycoprotein IIb/IIIa complex and exposure of granule membrane proteins. The platelet glycoprotein IIb/IIIa complex is believed involved with biochemical events leading to activation, and may express an activation dependent epitope recognized by monoclonal antibody PAC-1. Shattil et al., “Changes in the platelet membrane glycoprotein IIb/IIIa complex during platelet activation” J. Biol. Chem. 260:11107-11114 (1985). P-Selectin (GMP-140, PADGEM, CD-62P) is now known to be a component of the alpha-granule membrane and is therefore exposed on the surface of the platelet upon activation, due to the fusing of the vesicle with the outer membrane. These two markers of platelet activation were used to study the effect of peptide on collagen-induced platelet activation using whole blood flow cytometry.
The final concentration of a peptide used in incubation (i.e., for example, the GPVI CP) was 100 μM. The following antibodies (and appropriately matched isotype control antibodies) were used for flow cytometry analysis: fluorescein isothiocyanate (FITC)-conjugated PAC-1 monoclonal antibody which recognizes the activated conformation of glycoprotein (GP) IIb/IIIa; phycoerythrin (PE)-conjugated anti-CD62P monoclonal antibody directed against P-Selectin; and PECy7-conjugated anti-CD41 monoclonal antibody which recognizes the α-subunit of the CD41/CD61 complex (GPIIb-IIIa) (BD-Pharmingen, San-Diego, Calif., USA; and/or DAKO, Carpinteria, Calif., USA).
Prior to flow cytometric experiments, PE-conjugated anti-CD62P and anti-CD41 antibodies were mixed at a ratio of 1:2.5 (volume/volume) and diluted at a ratio of 1:9 (volume/volume) with 10 mmol/L HEPES, 0.15 mol/L NaCl, pH 7.4, containing 1% bovine serum albumin (BSA) and 15 mmol/L sodium azide. Collagen was purchased from Chronolog Corp (Havertown, Pa., USA). The stock 1 mg/mL collagen solution was diluted at a ratio of 1:10 (volume/volume) with 10 mmol/L HEPES, 0.15 mol/L NaCl, pH 7.4. Stock solutions of GPVI core peptide in DMSO (or pure DMSO as a “vehicle” control) were diluted at a ratio of 1:10 (volume/volume) with 10 mmol/L HEPES, 0.15 mol/L NaCl, pH 7.4, immediately before the addition of blood samples.
Flow cytometric analysis: aliquots of citrated whole blood were incubated at 37° C. for 60 min with vehicle (DMSO; in a final concentrations of 0.063, 0.125 or 0.250%) or a preliminarily diluted GPVI core peptide in a final concentration of 100 μM. Then, the aliquoted samples were stimulated with 20 μg/mL collagen for 5 minutes at 37° C. in the presence of monoclonal antibody FITC-PAC-1. […]

[1] = Solubility of peptides in aqueous solutions and solvents; type: physicochemical; conditions: solubility improved by ethanol, DMSO, DMF, TFA
Experimental: as §1

Molecule	DMSO concentration observed toxic to cells (cells)	expression of the platelet activation markers as compared to vehicle control (platelets; 100 μM peptide, 20 μg/mL collagen)	collagen-mediated platelet activation, percentage of P-Selectin-positive platelets (platelets; 100 μM, FIG. 8A)	collagen-mediated platelet activation, P-Selectin mean fluorescence surface expression intensity (platelets; 100 μM, FIG. 8B)	collagen-mediated platelet activation, PAC-1 mean fluorescence surface expression intensity (platelets; 100 μM, FIG. 8C)	solubility in aqueous solutions [1]	reduction in the expression of the platelet activation markers compared to vehicle control (platelets; 100 μM peptide, whole blood preincubated 60 min 37° C., 20 μg/mL collagen, % P-Selectin-positive platelets, P-Selectin and PAC-1 MFI)	concentration-dependent effect on collagen-induced platelet activation (platelets; % P-Selectin-positive platelets, P-Selectin and PAC-1 MFI, listed as GPVI core peptide)	concentration-dependent effect on collagen-induced platelet activation (platelets; % P-Selectin-positive platelets, P-Selectin and PAC-1 MFI, listed as GPVI-CP)	inhibition of platelet activation (platelets; Examples 4 and 5)
C[S+](C)[O-] [DMSO, dimethylsulphoxide]	greater than 1%	–	–	–	–	–	–	–	–	–
H-GNLVAICLGAV-OH [CP-A, NH2-Gly-Asn-Leu-Val-Ala-Ile-Cys-Leu-Gly-Ala-Val-OH, reference compound]	–	did not lead to any significant differences	absence of effect	absence of effect	absence of effect	insoluble	–	–	–	–
H-GNLVRICLGAV-OH [Peptide 2, NH2-Gly-Asn-Leu-Val-Arg-Ile-Cys-Leu-Gly-Ala-Val-OH]	–	–	–	–	–	insoluble	32%-59%	inhibited platelet activation in a concentration-dependent manner	concentration-dependent effect	30-60%

From patent publication US8614188B2, “Inhibiting collagen-induced platelet aggregation and activation with peptide variants” (University of Massachusetts, priority 2006, dated 2013)
